Reference: patent US20120177701A1, “COMPOSITIONS COMPRISING IMMUNOSTIMULATORY NUCLEIC ACIDS AND RELATED METHODS” (priority 2010, published 2012)

Legend:
[1] = target: T1, human TLR8 (Homo sapiens, UniProt Q9NR97); assay: HEK-Blue hTLR8 NF-kB-inducible SEAP reporter assay (TLR8 activation); format: cell-based
T1 construct: host or cells: HEK293 (HEK-Blue hTLR8) with NF-kB-inducible SEAP reporter
T1 sequence (Q9NR97 27-1041): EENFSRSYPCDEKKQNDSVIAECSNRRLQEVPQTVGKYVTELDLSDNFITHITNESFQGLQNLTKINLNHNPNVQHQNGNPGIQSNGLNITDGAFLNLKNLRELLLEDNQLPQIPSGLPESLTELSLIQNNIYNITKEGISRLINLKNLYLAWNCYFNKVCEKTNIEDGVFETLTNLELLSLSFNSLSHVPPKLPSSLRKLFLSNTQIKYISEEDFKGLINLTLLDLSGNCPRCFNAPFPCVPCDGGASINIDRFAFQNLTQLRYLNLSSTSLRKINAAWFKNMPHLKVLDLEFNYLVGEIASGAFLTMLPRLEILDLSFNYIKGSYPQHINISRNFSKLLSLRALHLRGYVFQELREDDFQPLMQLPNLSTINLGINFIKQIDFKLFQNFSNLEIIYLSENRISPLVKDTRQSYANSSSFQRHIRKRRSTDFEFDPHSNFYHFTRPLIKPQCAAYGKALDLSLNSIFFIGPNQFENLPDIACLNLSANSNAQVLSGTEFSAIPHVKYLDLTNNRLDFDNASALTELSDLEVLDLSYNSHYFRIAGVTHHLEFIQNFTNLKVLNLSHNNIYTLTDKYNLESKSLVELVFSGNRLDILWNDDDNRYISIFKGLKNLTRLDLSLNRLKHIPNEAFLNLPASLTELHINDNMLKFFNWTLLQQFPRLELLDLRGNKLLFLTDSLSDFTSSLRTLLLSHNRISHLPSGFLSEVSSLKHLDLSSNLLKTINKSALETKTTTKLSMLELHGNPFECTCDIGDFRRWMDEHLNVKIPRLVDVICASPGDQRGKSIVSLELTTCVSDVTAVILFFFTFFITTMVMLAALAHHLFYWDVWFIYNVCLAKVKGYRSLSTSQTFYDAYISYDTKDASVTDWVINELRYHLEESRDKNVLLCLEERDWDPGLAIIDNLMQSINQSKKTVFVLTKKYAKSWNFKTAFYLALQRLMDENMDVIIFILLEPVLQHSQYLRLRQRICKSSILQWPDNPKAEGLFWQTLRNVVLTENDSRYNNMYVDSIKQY

[2] = tested on: murine splenocytes; assay: Immune cell activation (CD69 expression, FACS) in murine splenocytes; format: cell-based, mouse; conditions: 20 hours; for activation of immune cell populations (CD69 expression) / immune cell activation compared with R848 and control oligonucleotide: 200 nM DOTAP-complexed; for immune cell activation compared with R848 and control oligonucleotide: R848 1 μM; for NKT cell activation (CD69) / T cell activation (CD69) / granulocyte activation (CD69): compared with R848 1 μM
Method: In addition, upon removal of the supernatant at 20 hours post-incubation, the mouse cells were stained for the following cell markers: GR1, F4/80, CD11c, CD220, CD3, Ly49b, and CD69, and analyzed by FACS. Different immune cell populations were distinguished as follows: macrophages (F4/80^+/GR1^−); plasmacytoid dendritic cells or pDC (CD11c^+/CD220^+); B cells (CD220^+/CD11c^−); NK (CD3^−/Ly49b^+); myeloid DC or mDC ([…]); granulocytes (eosinophils) (GR1^+high/F4/80^−); T cells (CD3^+); and NKT cells (CD3^+/Ly49b^+). All immune cell populations were quantified by the expression of CD69 (am early activation marker).

[3] = tested on: J774 murine macrophages; assay: TNF-α induction in mouse macrophage cell line J774; format: cell-based
Method: Induction of TNF-α by macrophages is a hallmark of human TLR8 activation (Forsbach et al., 2008, J. Immunol., 180:3729-38; Ghosh et al., 2007, Int. Immunopharmacol., 7:1111-21; Gorden et al., 2005, J. Immunol., 174:1259-68). […] In the following experiment mouse macrophage cell line, J774, has been transfected by test ribonucleotides as described above for HEK-Blue™ hTLR8 cells (with the exception that 2-10×10^4 cells/well were used) and TNF-α was measured in culture supernatants at 16-20 hours after transfection.

Row | Substance | TLR8 activation (fold increase of SEAP induction over the background), described in words [1] | activation of immune cell populations (CD69 expression) [2] | immune cell activation compared with R848 and control oligonucleotide [2] | NKT cell activation (CD69) ([2]; 200 nM) | T cell activation (CD69) ([2]; 200 nM) | granulocyte activation (CD69) ([2]; 200 nM) | macrophage activation (CD69) ([2]; 200 nM, compared with R-0006) | B-cell activation (CD69) ([2]; 200 nM, compared with R-0006) | TNF-α induction, described in words [3] | concentration at which TNF-α induction reached plateau [3]
1 | 5′-AUUUAUUUUUAAAUUUUUGUGU-3′ (phosphorothioate, further chemistry not given here) [SL-0023, phosphorothioated ribonucleotide completely contained within SL-0005] | even stronger activity than the parental SL-0005 sequence | – | – | – | – | – | – | – | – | –
2 | 5′-UUAUUUUGUUUUUAAUAUUU-3′ (phosphorothioate backbone, further chemistry not given here) [SL-0012] | – | induced activation in most of the tested immune cell populations | at least comparable to that generated by treatment with 1 μM of R848, and usually exceeded the effects exhibited by the control oligonucleotide R-0006 | exceeded the activation observed for R848 | exceeded the activation observed for R848 | exceeded the activation observed for R848 | especially higher than the activation observed for R-0006 | – | – | –
3 | 5′-UUAUUUUGUUUUUAAUAUUUC-3′ (phosphorothioate backbone, further chemistry not given here) [SL-0011] | – | induced activation in most of the tested immune cell populations | at least comparable to that generated by treatment with 1 μM of R848, and usually exceeded the effects exhibited by the control oligonucleotide R-0006 | exceeded the activation observed for R848 | exceeded the activation observed for R848 | exceeded the activation observed for R848 | especially higher than the activation observed for R-0006 | especially higher than the activation observed for R-0006 | – | –
4 | 5′-CUGUGUGAACGAUAGUGCAG-3′ (phosphorothioate, further chemistry not given here) [SL-0019, phosphorothioated ribonucleotide derived from SL-0004] | markedly weaker | – | – | – | – | – | – | – | weaker than the level of induction observed for the other oligonucleotides | –
5 | 5′-GUUUAUCUGUGUG----------CAGUUUAAAC-3′ (GUUUAUCUGUGUGCAGUUUAAAC; phosphorothioate, further chemistry not given here) [SL-0020, dashes signify deleted nucleotides] | activity similar or exceeding that of SL-0004 | – | – | – | – | – | – | – | most potent | 300 nM
6 | 5′-AGAUGUUA--UUGUUU-AAUAUUU-3′ (AGAUGUUAUUGUUUAAUAUUU; phosphorothioate backbone, further chemistry not given here) [SL-0014, phosphorothioated ribonucleotide from SL-0001; dashes signify deleted nucleotides] | – | induced activation in most of the tested immune cell populations | at least comparable to that generated by treatment with 1 μM of R848, and usually exceeded the effects exhibited by the control oligonucleotide R-0006 | exceeded the activation observed for R848 | exceeded the activation observed for R848 | exceeded the activation observed for R848 | especially higher than the activation observed for R-0006 | – | – | –
